Source: the supplement of paper PMC11061612

How the values were obtained:
[1] = tested on: NB(TU)1-10 (Neuroblastoma); experiment: Bliss excess, mean over the matrix (fraction); higher = more synergy
Outline: (§1)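 Cell lines grown in DMEM/F12 or RPMI with 10% FBS were plated in 1536-well plates and held 24 hours at 37°C, 5% CO2 before 72 hours of exposure to two-drug dose matrices, with DMSO typically at 0.2%. CellTiter-Glo 2.0 luminescence gave viability, which was converted to inhibition. Vehicle wells were set to 0 and blank wells to 1. Combination Emax is the second-highest inhibition in the matrix, and Bliss excess is the observed combination effect minus the expected EA + EB − EA·EB, where EA and EB are the single-agent effects.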

DSH1 (Bladder Carcinoma) = experiment: combination Emax (second highest fraction inhibited in the dose matrix, 72 h); higher = more inhibition; extreme values may be limits of the assay
Outline: as §1

[2] = tested on: JiyoyeP-2003 (Burkitt's Lymphoma); experiment: as above
Outline: as §1

[3] = tested on: NB(TU)1-10 (Neuroblastoma); experiment: as above
Outline: as §1

[4] = tested on: NCI-H211 (Small Cell Lung Carcinoma); experiment: Bliss excess, mean over the matrix (fraction); higher = more synergy
Outline: as §1

[5] = tested on: NCI-H211 (Small Cell Lung Carcinoma); experiment: combination Emax (second highest fraction inhibited in the dose matrix, 72 h); higher = more inhibition; extreme values may be limits of the assay
Outline: as §1
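For Bliss excess, mean over the matrix in this document: after 72 h of two-drug dosing.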

## CN(C)CCCOc1ccc(-c2ccc3ncc4c(c3c2)n(C2CCOCC2)c(=O)n4C)cn1 [AZD0156] + C[C@@H]1COCCN1C2=NC(=NC(=C2)C3(CC3)[S@](=N)(=O)C)C4=C5C=CNC5=NC=C4 [AZD6738] (first compound max 1 µM, 7x7, partner max 10 µM)
[1]
  Bliss excess: -0.0026
DSH1 (Bladder Carcinoma)
  combination Emax: 0.823
[2]
  combination Emax: 0.955
[3]
  combination Emax: 0.798

## C=CCn1c(=O)c2cnc(Nc3ccc(N4CCN(C)CC4)cc3)nc2n1-c1cccc(C(C)(C)O)n1 [AZD1775] + O=C(c1cc(Cc2n[nH]c(=O)c3ccccc23)ccc1F)N1CCN(C(=O)C2CC2)CC1 [Olaparib] (first compound max 1 µM, partner max 10 µM)
[1]
  Bliss excess: 0.0461
DSH1 (Bladder Carcinoma)
  combination Emax: 0.369
[2]
  combination Emax: 0.915
[3]
  combination Emax: 0.815

## C[C@@H]1COCCN1c1cc(C2([S@](C)(=N)=O)CC2)nc(-c2ccnc3[nH]ccc23)n1 [AZD6738] + O=C(c1cc(Cc2n[nH]c(=O)c3ccccc23)ccc1F)N1CCN(C(=O)C2CC2)CC1 [Olaparib] (first compound max 10 µM, 7x7, partner max 10 µM)
[1]
  Bliss excess: 0.0254
DSH1 (Bladder Carcinoma)
  combination Emax: 0.752
[2]
  combination Emax: 0.944
[3]
  combination Emax: 0.751

## Cc1cc2ncnn2cc1Nc1ncc2c(n1)n(C1CCOCC1)c(=O)n2C [AZD7648] + CN(C)CCCOc1ccc(-c2ccc3ncc4c(c3c2)n(C2CCOCC2)c(=O)n4C)cn1 [AZD0156] (first compound max 10 µM, 7x7, partner max 1 µM)
[1]
  Bliss excess: 0.0361
DSH1 (Bladder Carcinoma)
  combination Emax: 0.286
[2]
  combination Emax: 0.394
[3]
  combination Emax: 0.322

## CCN(CCO)CCCOc1ccc2c(Nc3cc(CC(=O)Nc4cccc(F)c4)[nH]n3)ncnc2c1 [AZD2811] + O=C(c1cc(Cc2n[nH]c(=O)c3ccccc23)ccc1F)N1CCN(C(=O)C2CC2)CC1 [Olaparib] (first compound max 1 µM, 7x7, partner max 10 µM)
[1]
  Bliss excess: 0.0344
DSH1 (Bladder Carcinoma)
  combination Emax: 0.328
[2]
  combination Emax: 0.315
[3]
  combination Emax: 0.257

## COc1cc2c(cc1OCCCCCOc1cc3c(cc1OC)C(=O)N1C=C(C)C[C@H]1C=N3)N=C[C@@H]1CC(C)=CN1C2=O [SG3199] + O=C(c1cc(Cc2n[nH]c(=O)c3ccccc23)ccc1F)N1CCN(C(=O)C2CC2)CC1 [Olaparib] (first compound max 0.001 µM, 7x7, partner max 10 µM)
[1]
  Bliss excess: -0.0149
DSH1 (Bladder Carcinoma)
  combination Emax: 0.25
[2]
  combination Emax: 0.124
[3]
  combination Emax: 0.187

## COc1cccc(OCCCN)c1-c1cc(Nc2cnc(C#N)cn2)n[nH]1 [Prexasertib] + CN(C)CCCOc1ccc(-c2ccc3ncc4c(c3c2)n(C2CCOCC2)c(=O)n4C)cn1 [AZD0156] (first compound max 1 µM, 7x7, partner max 1 µM)
[1]
  Bliss excess: -0.0519
DSH1 (Bladder Carcinoma)
  combination Emax: 0.82
[2]
  combination Emax: 0.987
[3]
  combination Emax: 0.934

## COc1cccc(OCCCN)c1-c1cc(Nc2cnc(C#N)cn2)n[nH]1 [Prexasertib] + C[C@@H]1COCCN1C2=NC(=NC(=C2)C3(CC3)[S@](=N)(=O)C)C4=C5C=CNC5=NC=C4 [AZD6738] (first compound max 1 µM, 7x7, partner max 10 µM)
[1]
  Bliss excess: -0.141
DSH1 (Bladder Carcinoma)
  combination Emax: 0.852
[2]
  combination Emax: 0.981
[3]
  combination Emax: 0.94

## COc1cccc(OCCCN)c1-c1cc(Nc2cnc(C#N)cn2)n[nH]1 [Prexasertib] + O=C(c1cc(Cc2n[nH]c(=O)c3ccccc23)ccc1F)N1CCN(C(=O)C2CC2)CC1 [Olaparib] (first compound max 1 µM, 7x7, partner max 10 µM)
[1]
  Bliss excess: -0.0874
DSH1 (Bladder Carcinoma)
  combination Emax: 0.688
[2]
  combination Emax: 0.986
[3]
  combination Emax: 0.885

## Cc1cc2ncnn2cc1Nc1ncc2c(n1)n(C1CCOCC1)c(=O)n2C [AZD7648] + CCN(CCO)CCCOc1ccc2c(Nc3cc(CC(=O)Nc4cccc(F)c4)[nH]n3)ncnc2c1 [AZD2811] (first compound max 10 µM, 7x7, partner max 1 µM)
[1]
  Bliss excess: -0.0403
DSH1 (Bladder Carcinoma)
  combination Emax: 0.362
[2]
  combination Emax: 0.481
[3]
  combination Emax: 0.297

## COc1cccc(OCCCN)c1-c1cc(Nc2cnc(C#N)cn2)n[nH]1 [Prexasertib] + Cc1cc2ncnn2cc1Nc1ncc2c(n1)n(C1CCOCC1)c(=O)n2C [AZD7648] (first compound max 1 µM, 7x7, partner max 10 µM)
[1]
  Bliss excess: -0.0498
DSH1 (Bladder Carcinoma)
  combination Emax: 0.768
[2]
  combination Emax: 0.984
[3]
  combination Emax: 0.94

## CCN(CCO)CCCOc1ccc2c(Nc3cc(CC(=O)Nc4cccc(F)c4)[nH]n3)ncnc2c1 [AZD2811] + C[C@@H]1COCCN1C2=NC(=NC(=C2)C3(CC3)[S@](=N)(=O)C)C4=C5C=CNC5=NC=C4 [AZD6738] (first compound max 1 µM, 7x7, partner max 10 µM)
[1]
  Bliss excess: -0.063
DSH1 (Bladder Carcinoma)
  combination Emax: 0.673
[2]
  combination Emax: 0.93
[3]
  combination Emax: 0.756

## COc1cccc(OCCCN)c1-c1cc(Nc2cnc(C#N)cn2)n[nH]1 [Prexasertib] + CCc1c2c(nc3ccc(O)cc13)-c1cc3c(c(=O)n1C2)COC(=O)[C@]3(O)CC [SN-38] (first compound max 1 µM, 7x7, partner max 0.3 µM)
[1]
  Bliss excess: -0.0763
DSH1 (Bladder Carcinoma)
  combination Emax: 0.924
[2]
  combination Emax: 1
[3]
  combination Emax: 0.922

## Cc1cc2ncnn2cc1Nc1ncc2c(n1)n(C1CCOCC1)c(=O)n2C [AZD7648] + O=C(c1cc(Cc2n[nH]c(=O)c3ccccc23)ccc1F)N1CCN(C(=O)C2CC2)CC1 [Olaparib] (first compound max 10 µM, 7x7, partner max 10 µM)
[1]
  Bliss excess: -0.0408
DSH1 (Bladder Carcinoma)
  combination Emax: 0.272
[2]
  combination Emax: 0.423
[3]
  combination Emax: 0.263

## Cc1cc2ncnn2cc1Nc1ncc2c(n1)n(C1CCOCC1)c(=O)n2C [AZD7648] + C[C@@H]1COCCN1C2=NC(=NC(=C2)C3(CC3)[S@](=N)(=O)C)C4=C5C=CNC5=NC=C4 [AZD6738] (first compound max 10 µM, 7x7, partner max 10 µM)
[1]
  Bliss excess: -0.0214
DSH1 (Bladder Carcinoma)
  combination Emax: 0.736
[2]
  combination Emax: 0.929
[3]
  combination Emax: 0.713

## C=CCn1c(=O)c2cnc(Nc3ccc(N4CCN(C)CC4)cc3)nc2n1-c1cccc(C(C)(C)O)n1 [AZD1775] + C[C@@H]1COCCN1C2=NC(=NC(=C2)C3(CC3)[S@](=N)(=O)C)C4=C5C=CNC5=NC=C4 [AZD6738] (first compound max 1 µM, partner max 10 µM)
[1]
  Bliss excess: 0.0985
DSH1 (Bladder Carcinoma)
  combination Emax: 0.862
[2]
  combination Emax: 0.982
[3]
  combination Emax: 0.875

## CN(C)CCCOc1ccc(-c2ccc3ncc4c(c3c2)n(C2CCOCC2)c(=O)n4C)cn1 [AZD0156] + CCN(CCO)CCCOc1ccc2c(Nc3cc(CC(=O)Nc4cccc(F)c4)[nH]n3)ncnc2c1 [AZD2811] (first compound max 1 µM, 7x7, partner max 1 µM)
[1]
  Bliss excess: -0.0294
DSH1 (Bladder Carcinoma)
  combination Emax: 0.211
[2]
  combination Emax: 0.408
[3]
  combination Emax: 0.292

## CCc1c2c(nc3ccc(O)cc13)-c1cc3c(c(=O)n1C2)COC(=O)[C@]3(O)CC [SN-38] + O=C(c1cc(Cc2n[nH]c(=O)c3ccccc23)ccc1F)N1CCN(C(=O)C2CC2)CC1 [Olaparib] (first compound max 0.3 µM, 7x7, partner max 10 µM)
[1]
  Bliss excess: 0.0289
DSH1 (Bladder Carcinoma)
  combination Emax: 0.915
[2]
  combination Emax: 0.947
[3]
  combination Emax: 0.805

## COc1cccc2c1C(=O)c1c(O)c3c(c(O)c1C2=O)C[C@@](O)(C(=O)CO)C[C@@H]3O[C@H]1C[C@H](N)[C@H](O)[C@H](C)O1 [Doxorubicin] + Cc1cc2ncnn2cc1Nc1ncc2c(n1)n(C1CCOCC1)c(=O)n2C [AZD7648] (first compound max 1 µM, 7x7, partner max 10 µM)
[1]
  Bliss excess: 0.0954
DSH1 (Bladder Carcinoma)
  combination Emax: 0.86
[2]
  combination Emax: 0.981
[3]
  combination Emax: 0.793

## CCc1c2c(nc3ccc(O)cc13)-c1cc3c(c(=O)n1C2)COC(=O)[C@]3(O)CC [SN-38] + CN(C)CCCOc1ccc(-c2ccc3ncc4c(c3c2)n(C2CCOCC2)c(=O)n4C)cn1 [AZD0156] (first compound max 0.3 µM, 7x7, partner max 1 µM)
[1]
  Bliss excess: -0.0787
DSH1 (Bladder Carcinoma)
  combination Emax: 0.904
[2]
  combination Emax: 0.975
[3]
  combination Emax: 0.805

## COc1nnc2ccc(N3CCC(c4ccc(OCCN5CCN(C)C(=O)[C@H]5C)cc4)CC3)nn12 [AZD5153] + Cn1cnc2c(F)c(Nc3ccc(Br)cc3Cl)c(C(=O)NOCCO)cc21 [Selumetinib] (first compound max 1 µM, 7x7, partner max 10 µM)
[4]
  Bliss excess: 0.0477
DSH1 (Bladder Carcinoma)
  combination Emax: 0.683
[2]
  combination Emax: 0.839
[5]
  combination Emax: 1

## CN(C)CCCOc1ccc(-c2ccc3ncc4c(c3c2)n(C2CCOCC2)c(=O)n4C)cn1 [AZD0156] + C=CCn1c(=O)c2cnc(Nc3ccc(N4CCN(C)CC4)cc3)nc2n1-c1cccc(C(C)(C)O)n1 [AZD1775] (first compound max 1 µM, partner max 1 µM)
[1]
  Bliss excess: 0.014
DSH1 (Bladder Carcinoma)
  combination Emax: 0.421
[2]
  combination Emax: 0.937
[3]
  combination Emax: 0.857

## Cc1cc2ncnn2cc1Nc1ncc2c(n1)n(C1CCOCC1)c(=O)n2C [AZD7648] + C=CCn1c(=O)c2cnc(Nc3ccc(N4CCN(C)CC4)cc3)nc2n1-c1cccc(C(C)(C)O)n1 [AZD1775] (first compound max 10 µM, partner max 1 µM)
[1]
  Bliss excess: -0.062
DSH1 (Bladder Carcinoma)
  combination Emax: 0.463
[2]
  combination Emax: 0.929
[3]
  combination Emax: 0.824

## CC(=O)c1c(C)c2cnc(Nc3ccc(N4CCNCC4)cn3)nc2n(C2CCCC2)c1=O [Palbociclib] + Cn1cnc2c(F)c(Nc3ccc(Br)cc3Cl)c(C(=O)NOCCO)cc21 [Selumetinib] (first compound max 10 µM, 7x7, partner max 10 µM)
[4]
  Bliss excess: 0.0861
DSH1 (Bladder Carcinoma)
  combination Emax: 0.479
[2]
  combination Emax: 0.587
[5]
  combination Emax: 0.657

## Cc1nc(Nc2ncc(C(=O)Nc3c(C)cccc3Cl)s2)cc(N2CCN(CCO)CC2)n1 [Dasatinib] + CC(=O)Nc1cccc(-n2c(=O)n(C3CC3)c(=O)c3c(Nc4ccc(I)cc4F)n(C)c(=O)c(C)c32)c1 [Trametinib] (first compound max 2 µM, 7x7, partner max 1 µM)
[4]
  Bliss excess: 0.0556
DSH1 (Bladder Carcinoma)
  combination Emax: 0.505
[2]
  combination Emax: 0.715
[5]
  combination Emax: 0.456

## COc1nnc2ccc(N3CCC(c4ccc(OCCN5CCN(C)C(=O)[C@H]5C)cc4)CC3)nn12 [AZD5153] + CC1(C)CCC(CN2CCN(c3ccc(C(=O)NS(=O)(=O)c4ccc(NCC5CCOCC5)c([N+](=O)[O-])c4)c(Oc4cnc5[nH]ccc5c4)c3)CC2)=C(c2ccc(Cl)cc2)C1 [Venetoclax] (first compound max 1 µM, 7x7, partner max 1 µM)
[4]
  Bliss excess: 0.03
DSH1 (Bladder Carcinoma)
  combination Emax: 0.623
[2]
  combination Emax: 0.833
[5]
  combination Emax: 1

## Cn1cnc2c(F)c(Nc3ccc(Br)cc3Cl)c(C(=O)NOCCO)cc21 [Selumetinib] + C[C@@H]1COCCN1C2=NC(=NC(=C2)C3(CC3)[S@](=N)(=O)C)C4=C5C=CNC5=NC=C4 [AZD6738] (first compound max 10 µM, 7x7, partner max 10 µM)
[4]
  Bliss excess: -0.0285
DSH1 (Bladder Carcinoma)
  combination Emax: 0.761
[2]
  combination Emax: 0.947
[5]
  combination Emax: 0.606
